Converted amounts (≈) assume the structure as drawn. Read-outs that look alike come from different tables or passages of the source.
Columns and labels:
Solubility in PBS = type: physicochemical
In short: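 PBS sample ultracentrifuged; supernatant run on HPLC vs. 50 μM peptide in DMSO standard. Solubility = (PBS peak area / DMSO peak area) × 50 uM.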

CHI Log D procedure = type: physicochemical; conditions: for chromatographic logD: pH 7.4, CHI Log D; for CHI Log D: pH 7.4
[1] = molecular target: T1, full-length beta-Catenin (Uniprot ID P35222) (Homo sapiens, UniProt P35222); assay: Fluorescence polarization IC50 (beta-catenin / 5FAM-TCF4 10-53 competition); type: binding
T1 construct: 10 nM full-length beta-Catenin (Uniprot ID P35222)
T1 sequence (P35222 1-781): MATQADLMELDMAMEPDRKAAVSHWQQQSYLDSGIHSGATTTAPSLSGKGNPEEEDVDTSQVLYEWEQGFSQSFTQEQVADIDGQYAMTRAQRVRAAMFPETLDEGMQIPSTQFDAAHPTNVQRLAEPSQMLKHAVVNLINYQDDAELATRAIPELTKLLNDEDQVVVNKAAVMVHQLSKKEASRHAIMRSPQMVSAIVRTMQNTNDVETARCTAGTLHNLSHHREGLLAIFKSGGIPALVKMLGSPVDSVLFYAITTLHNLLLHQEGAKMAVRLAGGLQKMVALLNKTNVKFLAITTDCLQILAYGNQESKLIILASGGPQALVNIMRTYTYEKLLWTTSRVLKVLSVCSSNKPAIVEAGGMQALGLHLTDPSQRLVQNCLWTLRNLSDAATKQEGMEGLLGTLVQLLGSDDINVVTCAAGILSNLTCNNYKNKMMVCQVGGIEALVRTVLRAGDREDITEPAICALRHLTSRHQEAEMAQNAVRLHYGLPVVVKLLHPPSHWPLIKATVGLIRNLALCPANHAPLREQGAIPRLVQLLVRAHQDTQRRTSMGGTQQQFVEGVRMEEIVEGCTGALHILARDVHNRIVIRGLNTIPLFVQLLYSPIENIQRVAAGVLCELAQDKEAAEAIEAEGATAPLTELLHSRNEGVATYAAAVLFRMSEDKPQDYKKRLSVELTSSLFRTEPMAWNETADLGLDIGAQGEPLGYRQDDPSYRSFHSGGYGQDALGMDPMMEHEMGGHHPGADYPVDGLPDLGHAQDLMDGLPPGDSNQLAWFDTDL

[2] = fluorescence polarization, read-out: beta-Catenin FP IC50

Solubility (Solubility in PBS; Solubility (uM)) [µM]	chromatographic logD (CHI Log D procedure)	IC50 [1, 2] [nM]	Solubility (Solubility in PBS) [µM]	CHI Log D (CHI Log D procedure)	IC50 ([1]; read-out: FP EC50) [nM]	Structure (SMILES)
13 (≈ 24.6 µg/mL)	2.43	52				CC[C@H](C)[C@@H]1NC(=O)[C@H](CC(=O)O)NC(=O)[C@]2(CC=CCCCC3(CCCC=CCCCCCC[C@@](C)(C(=O)N[C@@H](Cc4ccccc4)C(=O)N[C@@H](Cc4csc5ccccc45)C(=O)N[C@@H](Cc4c[nH]cn4)C(N)=O)NC(=O)[C@H](CCC(N)=O)NC(=O)[C@H](Cc4ccccc4)NC(=O)[C@H](C)NC(=O)[C@H](C)NC(=O)[C@H](CCC(=O)O)NC(=O)[C@H](CC(=O)O)NC3=O)NC1=O)CCCN2C(C)=O (stereo partly drawn) [I-471, Ac-PL3-Asp-Ile-B5-Asp-Glu-Ala-Ala-Phe-Gln-S8-Phe-BztA-His-NH2]
36 (≈ 67.6 µg/mL)	2.42	62				CC[C@H](C)[C@@H]1NC(=O)[C@H](CC(=O)O)NC(=O)[C@]2(CC=CCCCC3(CCCC=CCCCCCC[C@@](C)(C(=O)N[C@@H](Cc4ccccc4)C(=O)N[C@@H](Cc4csc5ccccc45)C(=O)N[C@@H](Cc4c[nH]cn4)C(N)=O)NC(=O)[C@H](CC(N)=O)NC(=O)[C@H](Cc4ccccc4)NC(=O)[C@H](C)NC(=O)[C@H](C)NC(=O)[C@H](CCC(=O)O)NC(=O)[C@H](CC(=O)O)NC3=O)NC1=O)CCCN2C(C)=O (stereo partly drawn) [I-472, Ac-PL3-Asp-Ile-B5-Asp-Glu-Ala-Ala-Phe-Asn-S8-Phe-BztA-His-NH2]
		121	39 (≈ 71.8 µg/mL)	2.076	121	CC[C@@H]1NC(=O)[C@H](CC(=O)O)NC(=O)[C@]2(CC=CCCCC3(CCCC=CCCCCCC[C@@](C)(C(=O)N[C@@H](Cc4ccccc4)C(=O)N[C@@H](Cc4csc5ccccc45)C(=O)N[C@@H](CCC(N)=O)C(N)=O)NC(=O)[C@H](CC(N)=O)NC(=O)[C@H](Cc4ccccc4)NC(=O)[C@H](C)NC(=O)[C@H](C)NC(=O)[C@H](CCC(=O)O)NC(=O)[C@H](CC(=O)O)NC3=O)NC1=O)CCCN2C(C)=O (stereo partly drawn) [I-473, Ac-PL3-Asp-Abu-B5-Asp-Glu-Ala-Ala-Phe-Asn-S8-Phe-BztA-Gln-NH2]
		43	50 (≈ 92.1 µg/mL)	2.114	43	CC[C@@H]1NC(=O)[C@H](CC(=O)O)NC(=O)[C@]2(CC=CCCCC3(CCCC=CCCCCCC[C@@](C)(C(=O)N[C@@H](Cc4ccccc4)C(=O)N[C@@H](Cc4csc5ccccc45)C(=O)N[C@@H](CCC(N)=O)C(N)=O)NC(=O)[C@H](CC(N)=O)NC(=O)[C@H](Cc4ccccc4)NC(=O)[C@H](C)NC(=O)[C@H](C)NC(=O)[C@H](CCC(=O)O)NC(=O)[C@H](CC(=O)O)NC3=O)NC1=O)CCCN2C(C)=O (stereo partly drawn) [I-474, Ac-PL3-Asp-Abu-B5-Asp-Glu-Ala-Ala-Phe-Asn-S8-Phe-BztA-Gln-NH2]
		102	43 (≈ 80.4 µg/mL)	2.277	102	CC[C@@H](C)[C@@H]1NC(=O)[C@H](CC(=O)O)NC(=O)[C@]2(CC=CCCCC3(CCCC=CCCCCCC[C@@](C)(C(=O)N[C@@H](Cc4ccccc4)C(=O)N[C@@H](Cc4csc5ccccc45)C(=O)N[C@@H](CCC(N)=O)C(N)=O)NC(=O)[C@H](CC(N)=O)NC(=O)[C@H](Cc4ccccc4)NC(=O)[C@H](C)NC(=O)[C@H](C)NC(=O)[C@H](CCC(=O)O)NC(=O)[C@H](CC(=O)O)NC3=O)NC1=O)CCCN2C(C)=O (stereo partly drawn) [I-475, Ac-PL3-Asp-aIle-B5-Asp-Glu-Ala-Ala-Phe-Asn-S8-Phe-BztA-Gln-NH2]
		48	49 (≈ 91.6 µg/mL)	2.317	48	CC[C@@H](C)[C@@H]1NC(=O)[C@H](CC(=O)O)NC(=O)[C@]2(CC=CCCCC3(CCCC=CCCCCCC[C@@](C)(C(=O)N[C@@H](Cc4ccccc4)C(=O)N[C@@H](Cc4csc5ccccc45)C(=O)N[C@@H](CCC(N)=O)C(N)=O)NC(=O)[C@H](CC(N)=O)NC(=O)[C@H](Cc4ccccc4)NC(=O)[C@H](C)NC(=O)[C@H](C)NC(=O)[C@H](CCC(=O)O)NC(=O)[C@H](CC(=O)O)NC3=O)NC1=O)CCCN2C(C)=O (stereo partly drawn) [I-476, Ac-PL3-Asp-aIle-B5-Asp-Glu-Ala-Ala-Phe-Asn-S8-Phe-BztA-Gln-NH2]
49 (≈ 91.7 µg/mL)	2	119				CC(=O)N1CCC[C@]12CC=CCCCC1(CCCC=CCCCCCC[C@@](C)(C(=O)N[C@@H](Cc3ccccc3)C(=O)N[C@@H](Cc3csc4ccccc34)C(=O)N[C@@H](CCC(N)=O)C(N)=O)NC(=O)[C@H](CCC(N)=O)NC(=O)[C@H](Cc3ccccc3)NC(=O)[C@H](C)NC(=O)[C@H](C)NC(=O)[C@H](CCC(=O)O)NC(=O)[C@H](CC(=O)O)NC1=O)NC(=O)[C@H]([C@@H](C)O)NC(=O)[C@H](CC(=O)O)NC2=O (stereo partly drawn) [I-477, Ac-PL3-Asp-Thr-B5-Asp-Glu-Ala-Ala-Phe-Gln-S8-Phe-BztA-Gln-NH2]
		71	42 (≈ 77.7 µg/mL)	2.052	71	CC(=O)N1CCC[C@]12CC=CCCCC1(CCCC=CCCCCCC[C@@](C)(C(=O)N[C@@H](Cc3ccccc3)C(=O)N[C@@H](Cc3csc4ccccc34)C(=O)N[C@@H](Cc3cn(C)cn3)C(N)=O)NC(=O)[C@H](CC(N)=O)NC(=O)[C@H](Cc3ccccc3)NC(=O)[C@H](C)NC(=O)[C@H](C)NC(=O)[C@H](CCC(=O)O)NC(=O)[C@H](CC(=O)O)NC1=O)NC(=O)[C@H](C)NC(=O)[C@H](CC(=O)O)NC2=O (stereo partly drawn) [I-478, Ac-PL3-Asp-Ala-B5-Asp-Glu-Ala-Ala-Phe-Asn-S8-Phe-BztA-1MeH-NH2]
		27	38 (≈ 70.3 µg/mL)	2.094	27	CC(=O)N1CCC[C@]12CC=CCCCC1(CCCC=CCCCCCC[C@@](C)(C(=O)N[C@@H](Cc3ccccc3)C(=O)N[C@@H](Cc3csc4ccccc34)C(=O)N[C@@H](Cc3cn(C)cn3)C(N)=O)NC(=O)[C@H](CC(N)=O)NC(=O)[C@H](Cc3ccccc3)NC(=O)[C@H](C)NC(=O)[C@H](C)NC(=O)[C@H](CCC(=O)O)NC(=O)[C@H](CC(=O)O)NC1=O)NC(=O)[C@H](C)NC(=O)[C@H](CC(=O)O)NC2=O (stereo partly drawn) [I-479, Ac-PL3-Asp-Ala-B5-Asp-Glu-Ala-Ala-Phe-Asn-S8-Phe-BztA-1MeH-NH2]
		147	50 (≈ 92.4 µg/mL)	1.97	147	CC(=O)N1CCC[C@]12CC=CCCCC1(CCCC=CCCCCCC[C@@](C)(C(=O)N[C@@H](Cc3ccccc3)C(=O)N[C@@H](Cc3csc4ccccc34)C(=O)N[C@@H](CCC(N)=O)C(N)=O)NC(=O)[C@H](CCC(N)=O)NC(=O)[C@H](Cc3cccs3)NC(=O)[C@H](C)NC(=O)[C@H](C)NC(=O)[C@H](CCC(=O)O)NC(=O)[C@H](CC(=O)O)NC1=O)NC(=O)[C@H](C)NC(=O)[C@H](CC(=O)O)NC2=O (stereo partly drawn) [I-486, Ac-PL3-Asp-Ala-B5-Asp-Glu-Ala-Ala-2Thi-Gln-S8-Phe-BztA-Gln-NH2]
		45	44 (≈ 81.3 µg/mL)	1.99	45	CC(=O)N1CCC[C@]12CC=CCCCC1(CCCC=CCCCCCC[C@@](C)(C(=O)N[C@@H](Cc3ccccc3)C(=O)N[C@@H](Cc3csc4ccccc34)C(=O)N[C@@H](CCC(N)=O)C(N)=O)NC(=O)[C@H](CCC(N)=O)NC(=O)[C@H](Cc3cccs3)NC(=O)[C@H](C)NC(=O)[C@H](C)NC(=O)[C@H](CCC(=O)O)NC(=O)[C@H](CC(=O)O)NC1=O)NC(=O)[C@H](C)NC(=O)[C@H](CC(=O)O)NC2=O (stereo partly drawn) [I-487, Ac-PL3-Asp-Ala-B5-Asp-Glu-Ala-Ala-2Thi-Gln-S8-Phe-BztA-Gln-NH2]
30 (≈ 56.9 µg/mL)	2.4	43				CC[C@H](C)[C@@H]1NC(=O)[C@H](CC(=O)O)NC(=O)[C@]2(CC=CCCCC3(CCCC=CCCCCCC[C@@](C)(C(=O)N[C@@H](Cc4ccccc4)C(=O)N[C@@H](Cc4csc5ccccc45)C(=O)N[C@@H](Cc4c[nH]cn4)C(N)=O)NC(=O)[C@H](CCC(N)=O)NC(=O)[C@H](Cc4cccs4)NC(=O)[C@H](C)NC(=O)[C@H](C)NC(=O)[C@H](CCC(=O)O)NC(=O)[C@H](CC(=O)O)NC3=O)NC1=O)CCCN2C(C)=O (stereo partly drawn) [I-488, Ac-PL3-Asp-Ile-B5-Asp-Glu-Ala-Ala-2Thi-Gln-S8-Phe-BztA-His-NH2]
36 (≈ 67.8 µg/mL)	2.34	57				CC[C@H](C)[C@@H]1NC(=O)[C@H](CC(=O)O)NC(=O)[C@]2(CC=CCCCC3(CCCC=CCCCCCC[C@@](C)(C(=O)N[C@@H](Cc4ccccc4)C(=O)N[C@@H](Cc4csc5ccccc45)C(=O)N[C@@H](Cc4c[nH]cn4)C(N)=O)NC(=O)[C@H](CCC(N)=O)NC(=O)[C@H](Cc4cccs4)NC(=O)[C@H](C)NC(=O)[C@H](C)NC(=O)[C@H](CC(=O)O)NC(=O)[C@H](CC(=O)O)NC3=O)NC1=O)CCCN2C(C)=O (stereo partly drawn) [I-489, Ac-PL3-Asp-Ile-B5-Asp-Asp-Ala-Ala-2Thi-Gln-S8-Phe-BztA-His-NH2]

— patent publication US20240116985A1, “STAPLED PEPTIDES AND METHODS THEREOF” (priority 2020, published 2024)
